Laboratory results from ChEMBL document CHEMBL1158270, “Triangulynes A-H and trangulynic acid, new cytotxic polyacetylenes from the marine sponge Pellina triangulata” (1996).

Columns and labels:
Format in all cases: functional
NCI-H226 = experiment: Cytotoxicity against human NCI-H226 cells
K562 = experiment: Cytotoxicity against human K562 cells
OVCAR-4 = experiment: Cytotoxicity against human OVCAR4 cells
DU-145 = experiment: Cytotoxicity against human DU145 cells
T47D = experiment: Cytotoxicity against human T47D cells
HOP-62 = experiment: Cytotoxicity against human HOP62 cells
HCT-116 = experiment: Cytotoxicity against human HCT116 cells
OVCAR-3 = experiment: Cytotoxicity against human OVCAR-3 cells
[1] = Cytotoxicity against human Hs 578T cells
CCRF-CEM = experiment: Cytotoxicity against human CCRF-CEM cells
SW-620 = experiment: Cytotoxicity against human SW620 cells
NCI-H322M = experiment: Cytotoxicity against human NCI-H322M cells
IGROV-1 = experiment: Cytotoxicity against human IGROV1 cells
MCF7 = experiment: Cytotoxicity against human MCF7 cells
NCI-H23 = experiment: Cytotoxicity against human NCI-H23 cells
SF-539 = experiment: Cytotoxicity against human SF539 cells
SF-295 = experiment: Cytotoxicity against human SF295 cells
U-251 = experiment: Cytotoxicity against human U251 cells
HL-60 = experiment: Cytotoxicity against human HL60 cells
KM12 = experiment: Cytotoxicity against human KM12 cells
MDA-MB-231 = experiment: Cytotoxicity against human MDA-MB-231 cells
786-0 = experiment: Cytotoxicity against human 786-0 cells
Malme-3M = experiment: Cytotoxicity against human MALME-3M cells
SK-MEL-5 = experiment: Cytotoxicity against human SK-MEL-5 cells
NCI-H522 = experiment: Cytotoxicity against human NCI-H522 cells
RPMI-8226 = experiment: Cytotoxicity against human RPMI8226 cells
MDA-N = experiment: Cytotoxicity against human MDA-N cells
LOX IMVI = experiment: Cytotoxicity against human LOXIMVI cells
CAKI-1 = experiment: Cytotoxicity against human Caki1 cells
SK-MEL-2 = experiment: Cytotoxicity against human SK-MEL-2 cells
SK-MEL-28 = experiment: Cytotoxicity against human SK-MEL-28 cells
NCI-H460 = experiment: Cytotoxicity against human NCI-H460 cells
SF-268 = experiment: Cytotoxicity against human SF268 cells
UO-31 = experiment: Cytotoxicity against human UO31 cells
SNB-19 = experiment: Cytotoxicity against human SNB19 cells
TK-10 = experiment: Cytotoxicity against human TK10 cells
HOP-92 = experiment: Cytotoxicity against human HOP92 cells
SK-OV-3 = experiment: Cytotoxicity against human SKOV3 cells
MOLT-4 = experiment: Cytotoxicity against human MOLT4 cells
UACC-62 = experiment: Cytotoxicity against human UACC62 cells
A498 = experiment: Cytotoxicity against human A498 cells
SR = experiment: Cytotoxicity against human SR cells
SNB-75 = experiment: Cytotoxicity against human SNB75 cells
EKVX = experiment: Cytotoxicity against human EKVX cells
UACC-257 = experiment: Cytotoxicity against human UACC257 cells
[2] = read-out: pLC50 (the source's name) (converted)

C#C[C@H](O)/C=C/CCCCCCCCCC/C=C\CCCCCCC[C@H](O)C#CC#CC#CCO [TRIANGULYNE A]
GI50 (NCI-H226): 0.603 µM
CC50 (NCI-H226; [2]): 8.13 µM
TGI (NCI-H226; read-out: pTGI (converted)): 1.91 µM
GI50 (K562): 0.372 µM
LC50 (K562): 37.2 µM
TGI (K562; read-out: pTGI (converted)): 2.29 µM
GI50 (OVCAR-4): 0.851 µM
CC50 (OVCAR-4; [2]): 38 µM
TGI (OVCAR-4; read-out: pTGI (converted)): 6.31 µM
GI50 (DU-145): 1.41 µM
CC50 (DU-145; [2]): 18.2 µM
TGI (DU-145; read-out: pTGI (converted)): 5.5 µM
GI50 (T47D): 1.51 µM
CC50 (T47D; [2]): 47.9 µM
TGI (T47D; read-out: pTGI (converted)): 7.24 µM
GI50 (HOP-62): 1.58 µM
CC50 (HOP-62; [2]): 75.9 µM
TGI (HOP-62; read-out: pTGI (converted)): 5.37 µM
GI50 (HCT-116): 0.129 µM
LC50 (HCT-116): 3.47 µM
TGI (HCT-116; read-out: pTGI (converted)): 0.661 µM
GI50 (OVCAR-3): 0.372 µM
CC50 (OVCAR-3; [2]): 5.25 µM
TGI (OVCAR-3; read-out: pTGI (converted)): 1.51 µM
GI50 [1]: 2.4 µM
CC50 [1, 2]: 57.5 µM
TGI ([1]; read-out: pTGI (converted)): 8.32 µM
GI50 (CCRF-CEM): 0.17 µM
LC50 (CCRF-CEM): 33.9 µM
TGI (CCRF-CEM; read-out: pTGI (converted)): 0.776 µM
GI50 (SW-620): 0.339 µM
LC50 (SW-620): 9.33 µM
TGI (SW-620; read-out: pTGI (converted)): 1.29 µM
GI50 (NCI-H322M): 3.31 µM
CC50 (NCI-H322M; [2]): 57.5 µM
TGI (NCI-H322M; read-out: pTGI (converted)): 12 µM
GI50 (IGROV-1): 0.49 µM
CC50 (IGROV-1; [2]): 8.13 µM
TGI (IGROV-1; read-out: pTGI (converted)): 1.82 µM
GI50 (MCF7): 1.58 µM
CC50 (MCF7; [2]): 25.7 µM
TGI (MCF7; read-out: pTGI (converted)): 6.03 µM
GI50 (NCI-H23): 0.257 µM
CC50 (NCI-H23; [2]): 14.1 µM
TGI (NCI-H23; read-out: pTGI (converted)): 1.29 µM
GI50 (SF-539): 1.1 µM
CC50 (SF-539; [2]): 19.1 µM
TGI (SF-539; read-out: pTGI (converted)): 3.31 µM
GI50 (SF-295): 2.88 µM
CC50 (SF-295; [2]): 51.3 µM
TGI (SF-295; read-out: pTGI (converted)): 9.55 µM
GI50 (U-251): 0.813 µM
CC50 (U-251; [2]): 5.25 µM
TGI (U-251; read-out: pTGI (converted)): 2.19 µM
GI50 (HL-60): 0.0832 µM
LC50 (HL-60): 25.1 µM
TGI (HL-60; read-out: pTGI (converted)): 3.63 µM
GI50 (KM12): 0.17 µM
LC50 (KM12): 1.1 µM
TGI (KM12; read-out: pTGI (converted)): 0.38 µM
GI50 (MDA-MB-231): 0.229 µM
CC50 (MDA-MB-231; [2]): 9.12 µM
TGI (MDA-MB-231; read-out: pTGI (converted)): 0.603 µM
GI50 (786-0): 0.288 µM
CC50 (786-0; [2]): 3.98 µM
TGI (786-0; read-out: pTGI (converted)): 1.1 µM
GI50 (Malme-3M): 0.251 µM
LC50 (Malme-3M): 1.91 µM
TGI (Malme-3M; read-out: pTGI (converted)): 0.646 µM
GI50 (SK-MEL-5): 0.0724 µM
CC50 (SK-MEL-5; [2]): 0.479 µM
TGI (SK-MEL-5; read-out: pTGI (converted)): 0.2 µM
GI50 (NCI-H522): 0.151 µM
CC50 (NCI-H522; [2]): 0.646 µM
TGI (NCI-H522; read-out: pTGI (converted)): 0.38 µM
GI50 (RPMI-8226): 0.0309 µM
LC50 (RPMI-8226): 100 µM
TGI (RPMI-8226; read-out: pTGI (converted)): 1 µM
GI50 (MDA-N): 0.24 µM
CC50 (MDA-N; [2]): 8.51 µM
TGI (MDA-N; read-out: pTGI (converted)): 3.09 µM
GI50 (LOX IMVI): 0.141 µM
LC50 (LOX IMVI): 7.94 µM
TGI (LOX IMVI; read-out: pTGI (converted)): 0.363 µM
GI50 (CAKI-1): 0.251 µM
CC50 (CAKI-1; [2]): 3.39 µM
TGI (CAKI-1; read-out: pTGI (converted)): 0.676 µM
GI50 (SK-MEL-2): 0.251 µM
CC50 (SK-MEL-2; [2]): 7.76 µM
TGI (SK-MEL-2; read-out: pTGI (converted)): 0.891 µM
GI50 (SK-MEL-28): 0.708 µM
CC50 (SK-MEL-28; [2]): 12 µM
TGI (SK-MEL-28; read-out: pTGI (converted)): 2.29 µM
GI50 (NCI-H460): 0.347 µM
CC50 (NCI-H460; [2]): 42.7 µM
TGI (NCI-H460; read-out: pTGI (converted)): 1.82 µM
GI50 (SF-268): 0.347 µM
CC50 (SF-268; [2]): 12.9 µM
TGI (SF-268; read-out: pTGI (converted)): 3.89 µM
GI50 (UO-31): 1.29 µM
CC50 (UO-31; [2]): 5.5 µM
TGI (UO-31; read-out: pTGI (converted)): 2.69 µM
GI50 (SNB-19): 3.39 µM
CC50 (SNB-19; [2]): 52.5 µM
TGI (SNB-19; read-out: pTGI (converted)): 12 µM
GI50 (TK-10): 0.646 µM
CC50 (TK-10; [2]): 11 µM
TGI (TK-10; read-out: pTGI (converted)): 2.09 µM
GI50 (HOP-92): 0.324 µM
CC50 (HOP-92; [2]): 15.1 µM
TGI (HOP-92; read-out: pTGI (converted)): 1.2 µM
GI50 (SK-OV-3): 2.82 µM
CC50 (SK-OV-3; [2]): 37.2 µM
TGI (SK-OV-3; read-out: pTGI (converted)): 7.94 µM
GI50 (MOLT-4): 0.209 µM
CC50 (MOLT-4; [2]): 67.6 µM
TGI (MOLT-4; read-out: pTGI (converted)): 0.813 µM
GI50 (UACC-62): 0.229 µM
CC50 (UACC-62; [2]): 9.12 µM
TGI (UACC-62; read-out: pTGI (converted)): 0.646 µM
GI50 (A498): 0.525 µM
CC50 (A498; [2]): 5.25 µM
TGI (A498; read-out: pTGI (converted)): 1.58 µM
GI50 (SR): 0.182 µM
LC50 (SR): 100 µM
TGI (SR; read-out: pTGI (converted)): 3.24 µM
GI50 (SNB-75): 2 µM
CC50 (SNB-75; [2]): 15.8 µM
TGI (SNB-75; read-out: pTGI (converted)): 6.61 µM
GI50 (EKVX): 0.871 µM
CC50 (EKVX; [2]): 6.76 µM
TGI (EKVX; read-out: pTGI (converted)): 2.4 µM
GI50 (UACC-257): 0.513 µM
CC50 (UACC-257; [2]): 8.13 µM
TGI (UACC-257; read-out: pTGI (converted)): 2.09 µM
